The values that follow come from patent US20070254894A1, “Novel small molecules with selective cytotoxicity against human microvascular endothelial cell proliferation” (priority 2006, published 2007).

Data set [1] concerns HMVEC cells stimulated with VEGF 165. Briefly: VEGF driven HMVEC proliferation screen. The data set is classed as cell-based. On the procedure: (§1) HMVEC cells were plated on collagen-coated plates at 2500 cells/well for 24 hours. Various concentrations of test compounds were then added to duplicate plates. […] Anti-FGF antibody (final concentration of 5 μg/mL) was added to four control wells as a standard inhibitor. At the same time the compounds were added, a T-zero plate was generated (Alamar blue was added to a plate and read after three hours). The plates with the compounds were incubated for one hour at 37° C., 5% carbon dioxide. At this point, b-FGF was added (final concentration of 2.5 ng/mL). Tween-20 (10 μL) was added to four additional control wells to represent total death and the plates were returned to the carbon dioxide incubator for 6 days.
The assay was run identically using VEGF in place of b-FGF. The final concentration of VEGF 165, in this mode, was 10 ng/mL. The control inhibitor was anti-VEGF antibody (final concentration of […]). All other conditions were the same.

In data set [2] the test system is HMVEC cells stimulated with b-FGF. Briefly: b-FGF driven HMVEC proliferation screen. Format: cell-based. On the procedure:
as §1

Data set [3] deals with Primary Human Dermal Fibroblasts. The data set can be described thus: in vitro. Particulars: read-out: D. Fibroblast LC50; 6 days, Alamar blue. The procedure: (§2) In parallel with the VEGF and FGF screens, a normal cell toxicity assay was run. Primary Human Dermal Fibroblasts (Clonetics) were plated at 5000 cells/well. After 24 hours various concentrations of test compounds, were added in duplicate plates and 10% Tween-20 was added to four control wells to represent total death. At the same time a T-zero plate was generated. The plates were returned to the carbon dioxide incubator and on day 6 Alamar blue was added and the plates read after 3 hours.
(§3) Using a T-zero plate allows the observation of compounds that cause the cells to become static as well as inhibit growth.
A general note: Resazurin is reduced to fluorescent resorufin, in cell work by metabolically active cells.

Data set [4] relates to retinal neovascularization. Briefly: Mouse model of oxygen induced retinopathy (OIR), intravitreal administration. The data set is classed as in vivo, C57BL/6 mouse. Particulars: for amount of neovascularization: intravitreal once on day 12, 30 mg/ml, eyes examined day 17, versus controls; for pupils of treated animals: for the duration of the study. The procedure:
Seven day old neonatal C57BL/6 mouse pups and their nursing dam were placed in an isobaric chamber that maintains a 75% oxygen level. The pups were returned to a normoxic environment at 12 days of age. The test articles and vehicle controls were administered intravitreally (once on day 12). Approximately one half of the pups from each litter were injected, the remaining pups were used as controls. Pups were euthanized on day 17 and their left/treated eye is processed for histological sectioning. […] The degree of neovascularization was measured by examining serial sections of the eye taken at 100 micron intervals. The numbers of endothelial nuclei that were internal but contiguous to the inner limiting membrane were counted. The number of nuclei from test article treated animals was compared with those counted in control animals. [table]

The nature of another data set: in vitro. Particulars: human, primary human dermal fibroblasts, D. Fibroblast LC50, 6 days, Alamar blue. The procedure:
as §2, §3

Setting [5] is: Homo sapiens, HMVEC, 144 h, VEGF 165 10 ng/mL, 6 days, Alamar blue, read-out: VEGF LC50.
Where [6] appears, read: Homo sapiens, HMVEC, 144 h, b-FGF 2.5 ng/mL, 6 days, Alamar blue, read-out: b-FGF LC50.
The mark [7] stands for this setting: VEGF 165 10 ng/mL, 6 days, Alamar blue, read-out: VEGF LC50.
Setting [8] is: b-FGF 2.5 ng/mL, 6 days, Alamar blue, read-out: b-FGF LC50.

Counter-ions that a name gives are not always drawn. Like-named read-outs stand apart in the source and are kept apart here.

As to `O=C(Nc1ccc(N2CCOCC2)c2cccnc12)c1ccccn1` [Compound 9], the CC50 in data set [1] is 35 nM; in data set [2] it was 37 nM; in data set [3], greater than 10000 nM. Further, the amount of neovascularization entry in data set [4] is on record as “a decrease in the amount of neovascularization”. For the same compound, the “effect on neovascularization, Compound 9 compared with Compound 98” value in data set [4] (intravitreal, 30 mg/ml, FIG. 1 and FIG. 2) is “A greater effect”. In data set [4] (intravitreal), the “pupils of treated animals” value is “markedly dilated”.

For the compound `CC(C)N1CCC[C@H]1C(=O)Nc1cccc2cccnc12` [Compound 64], the figures for the CC50 in data set [1] (setting [5]) and in data set [2] (setting [6]) were 6400 nM and 5200 nM, respectively. In the data set “in vitro”, this compound had a CC50 at 6 days greater than 10000 nM.

Regarding `CN1CCC[C@@H]1C(=O)Nc1cccc2cccnc12` [Compound 65], the CC50 in data set [1] (setting [5]) stood at 230 nM; in data set [2] (setting [6]), 290 nM. Moreover, in “in vitro”, the CC50 at 6 days was greater than 10000 nM.

With `COc1cc(NC(=O)[C@@H]2CCCN2C)c2ncccc2c1` [Compound 66], the CC50 in data set [1] (setting [5]) and in data set [2] (setting [6]) was 240 nM in each case. The CC50 at 6 days in “in vitro” was greater than 10000 nM.

Turning to `Cc1cc(NC(=O)[C@@H]2CCCN2C)c2ncccc2c1` [Compound 67], the results for the CC50 in data set [1] (setting [5]) and in data set [2] (setting [6]) were 230 nM and 350 nM, respectively. In addition, in “in vitro”, the CC50 at 6 days was greater than 10000 nM.

As to `CN1CCC[C@H]1C(=O)Nc1ccc(N2CCOCC2)c2cccnc12` [Compound 68], the CC50 in data set [1] (setting [5]) was 430 nM; in data set [2] (setting [6]), 820 nM. The CC50 at 6 days in “in vitro” was greater than 10000 nM.

On to `CN1CCCC[C@H]1C(=O)Nc1cccc2cccnc12` [Compound 69], for which the CC50 stood at 3100 nM in data set [1] (setting [5]) and 2600 nM in data set [2] (setting [6]). The same compound came in with a CC50 at 6 days in “in vitro” greater than 10000 nM.

On to `CN1CCCC[C@@H]1C(=O)Nc1cccc2cccnc12` [Compound 70], for which the CC50 in data set [1] (setting [5]) is 3900 nM; in data set [2] (setting [6]), 2800 nM. The CC50 at 6 days in the data set “in vitro” is greater than 10000 nM.

As to `Cc1cc(NS(=O)(=O)c2ccccn2)c2ncccc2c1C` [Compound 75, pyridine-2-sulfonic acid (5,6-dimethyl-quinolin-8-yl)-amide], the CC50 is 190 nM in data set [1] (setting [5]) and 160 nM in data set [2] (setting [6]). Besides, the CC50 at 6 days in “in vitro” was greater than 10000 nM.

With `O=C(Nc1cccc2ccnnc12)c1ccccn1` [Compound 76], the CC50 in data set [1] (setting [5]) was 3500 nM; in data set [2] (setting [6]), 3300 nM. In the data set “in vitro”, this compound came in with a CC50 at 6 days greater than 10000 nM.

In the case of `O=S(=O)(Nc1cccc2nccnc12)c1ccccn1` [Compound 78], the CC50 in data set [1] (setting [5]) was determined as 2400 nM; in data set [2] (setting [6]), 4200 nM. For the same compound, the CC50 at 6 days in “in vitro” was greater than 10000 nM.

`O=C(Nc1cccc2cccnc12)c1ccccn1` [Compound 93, pyridine-2-carboxylic acid quinolin-8-ylamide hydrochloride salt]: the CC50 was determined as 72 nM in data set [1] (setting [5]) and 71 nM in data set [2] (setting [6]). In “in vitro”, this compound gave a CC50 at 6 days greater than 10000 nM.

Turning to `O=C(Nc1cccc2nccnc12)c1ccccn1` [Compound 94], the CC50 stood at 280 nM in data set [1] (setting [5]) and 290 nM in data set [2] (setting [6]). In addition, in the data set “in vitro”, the CC50 at 6 days was greater than 10000 nM.

As to `Cc1cc(NC(=O)c2ccccn2)c2ncccc2c1C` [Compound 95], the values for the CC50 in data set [1] (setting [5]) and in data set [2] (setting [6]) were 150 nM and 170 nM, respectively. The same compound gave a CC50 at 6 days in the data set “in vitro” greater than 10000 nM.

Regarding `Cc1ccc(NC(=O)c2ccccn2)c2ncccc12` [Compound 96], the CC50 in data set [1] (setting [5]) stood at 140 nM; in data set [2] (setting [6]) it was 100 nM. This compound also displayed a CC50 at 6 days in “in vitro” greater than 10000 nM.

Regarding `O=C(Nc1cc(Cl)c(Cl)c2cccnc12)c1ccccn1` [Compound 97], the CC50 in data set [1] (setting [5]) and in data set [2] (setting [6]) was 250 nM throughout. In addition, the CC50 at 6 days in “in vitro” was greater than 10000 nM.

Turning to `CN1CCN(c2ccc(NC(=O)c3ccccn3)c3ncccc23)CC1` [Compound 98], the CC50 came out at 33 nM in data set [1] (setting [5]) and 36 nM in data set [2] (setting [6]). Further, in “in vitro”, the CC50 at 6 days was greater than 10000 nM. Besides, the amount of neovascularization result in data set [4] was “a decrease in the amount of neovascularization”. Moreover, the “pupils of treated animals” value in data set [4] (intravitreal) was “markedly dilated”.

`CN1CCCN(c2ccnc(C(=O)Nc3cccc4cccnc34)c2)CC1` [Compound 102]: the figures for the CC50 in data set [1] (setting [5]) and in data set [2] (setting [6]) were 24 nM and 31 nM, respectively. Also, the CC50 at 6 days in the data set “in vitro” is greater than 10000 nM.

Turning to `O=C(Nc1cccc2cccnc12)c1cc(N2CCC(N3CCCC3)CC2)ccn1` [Compound 103], the results for the CC50 in data set [1] (setting [5]) and in data set [2] (setting [6]) were 33 nM and 38 nM, respectively. The CC50 at 6 days in the data set “in vitro” was 4300 nM.

Take `COc1cc(NC(=O)c2cc(N3CCN(C)CC3)ccn2)c2ncccc2c1` [Compound 105]: the values for the CC50 in data set [1] (setting [7]) and in data set [2] (setting [8]) were 91 nM and 120 nM, respectively. Further, the CC50 at 6 days in “in vitro” came out at 9600 nM.

As to `CCN(C)c1ccccc1NC(=O)c1ccccn1` [Compound 106], the CC50 in data set [1] (setting [5]) was found to be 1500 nM; in data set [2] (setting [6]) it was 1200 nM. The CC50 at 6 days in the data set “in vitro” was greater than 10000 nM.

Consider `CN1CCC[C@H]1C(=O)Nc1cccc2cccnc12` [Compound 107], for which the CC50 in data set [1] (setting [7]) is 460 nM; in data set [2] (setting [8]) it was 410 nM. In addition, the CC50 at 6 days in “in vitro” was greater than 10000 nM.

Take `O=S(=O)(Nc1cc(Cl)c(Cl)c2cccnc12)c1ccccn1` [Compound 109]: the CC50 in data set [1] (setting [5]) is 450 nM; in data set [2] (setting [6]), 340 nM. In “in vitro”, this compound displayed a CC50 at 6 days greater than 10000 nM.

Take `CN1CCN(c2ccc(NS(=O)(=O)c3ccccn3)c3ncccc23)CC1` [Compound 110]: the CC50 stood at 1500 nM in data set [1] (setting [5]) and 1300 nM in data set [2] (setting [6]). The compound also had a CC50 at 6 days in “in vitro” greater than 10000 nM.
